Data reported in ChEMBL document CHEMBL4350981, “Salinomycin and its derivatives - A new class of multiple-targeted "magic bullets"” (Eur J Med Chem, 2019).
pEC50: −log10 of the molar value. Values after ≈ are worked out from the molar mass of the structure shown.

Experiments:
Staphylococcus aureus [1] = assay: Antibacterial activity against methicillin-resistant Staphylococcus aureus; format: functional
Staphylococcus aureus [2] = assay: Antibacterial activity against methicillin-sensitive Staphylococcus aureus; format: functional
Trypanosoma brucei = assay: Trypanocidal activity against bloodstream forms of Trypanosoma brucei […] incubated for 24 hrs followed by compound wash out after 72 hrs; format: functional
[3] = tested on: Staphylococcus epidermidis; assay: Antibacterial activity against methicillin-resistant Staphylococcus epidermidis; format: functional
Bacillus anthracis = assay: Antibacterial activity against Bacillus anthracis; format: functional
Mycolicibacterium phlei [4] = assay: Antibacterial activity against Mycobacterium phlei; format: functional
Bacillus subtilis = assay: Antibacterial activity against Bacillus subtilis; format: functional
Staphylococcus aureus [5] = assay: Antibacterial activity against Staphylococcus aureus; format: functional
Micrococcus luteus = assay: Antibacterial activity against Sarcina lutea; format: functional
Staphylococcus aureus [6] = assay: Antibacterial activity against Staphylococcus aureus FDA 209P by agar diffusion method; format: functional
Alternaria kikuchiana [7] = assay: Antimicrobial activity against Alternaria kikuchiana NIAS by agar diffusion method; format: functional
[8] = tested on: Human immunodeficiency virus 1; assay: Antiviral activity against HIV1 infected in U937 cells; format: functional, organism-based; conditions: Human immunodeficiency virus 1, U-937
[9] = tested on: Human immunodeficiency virus 1; assay: Antiviral activity against HIV1; format: functional, organism-based
Mycolicibacterium phlei [10] = assay: Antimycobacterial activity against Mycobacterium phlei IPCR by agar diffusion method; format: functional
Alternaria kikuchiana [11] = assay: Antimicrobial activity against Alternaria kikuchiana A-14 by agar diffusion method; format: functional
Pyricularia oryzae = assay: […] activity against Pyricularia oryzae by agar diffusion method; format: functional
Xanthomonas oryzae = assay: […] activity against Xanthomonas oryzae by agar diffusion method; format: functional
[12] = tested on: Mycobacteroides abscessus; assay: Antimycobacterial activity against Mycobacterium abscessus ATCC 19977; format: functional
Mycobacterium avium = assay: Antimycobacterial activity against Mycobacterium avium IFO 315 by agar diffusion method; format: functional
Influenza A virus H3N2 = assay: Antiviral activity against Influenza A virus (A/Hong Kong/7/1987(H3N2)) infected in MDCK cells after 3 days by MTT assay; format: functional, organism-based; conditions: 72 h

CC[C@@H](C(=O)[C@@H](C)[C@@H](O)[C@H](C)[C@@H]1O[C@@H]([C@@H](CC)C(=O)Nc2ccccc2)CC[C@@H]1C)[C@H]1O[C@]2(C=C[C@@H](O)[C@]3(CC[C@@](C)([C@H]4CC[C@](O)(CC)[C@H](C)O4)O3)O2)[C@H](C)C[C@@H]1C
MIC (Staphylococcus aureus [1]): 4 µg/mL (≈ 4.84 µM) | MIC (Staphylococcus aureus [2]): 2 µg/mL (≈ 2.42 µM)

CCCCNC(=O)[C@H](CC)[C@H]1CC[C@H](C)[C@H]([C@@H](C)[C@H](O)[C@H](C)C(=O)[C@H](CC)[C@H]2O[C@]3(C=C[C@@H](O)[C@]4(CC[C@@](C)([C@H]5CC[C@](O)(CC)[C@H](C)O5)O4)O3)[C@H](C)C[C@@H]2C)O1
GI50 (Trypanosoma brucei): 40 nM

CC[C@@H](C(=O)[C@@H](C)[C@@H](O)[C@H](C)[C@@H]1O[C@@H]([C@@H](CC)C(=O)On2nnc3ccccc32)CC[C@@H]1C)[C@H]1O[C@]2(C=C[C@@H](O)[C@]3(CC[C@@](C)([C@H]4CC[C@](O)(CC)[C@H](C)O4)O3)O2)[C@H](C)C[C@@H]1C
MIC (Staphylococcus aureus [2]): 1 to 2 µg/mL (≈ 1.15 to 2.3 µM)

CC[C@@H](C(=O)[C@@H](C)[C@@H](O)[C@H](C)[C@@H]1O[C@@H]([C@@H](CC)C(=O)N(CC)CC)CC[C@@H]1C)[C@H]1O[C@]2(C=C[C@@H](O)[C@]3(CC[C@@](C)([C@H]4CC[C@](O)(CC)[C@H](C)O4)O3)O2)[C@H](C)C[C@@H]1C
MIC [3]: 4 to 8 µg/mL (≈ 4.96 to 9.92 µM) | MIC (Bacillus anthracis): 1 µg/mL (≈ 1.24 µM)

CCCN(CCC)C(=O)[C@H](CC)[C@H]1CC[C@H](C)[C@H]([C@@H](C)[C@H](O)[C@H](C)C(=O)[C@H](CC)[C@H]2O[C@]3(C=C[C@@H](O)[C@]4(CC[C@@](C)([C@H]5CC[C@](O)(CC)[C@H](C)O5)O4)O3)[C@H](C)C[C@@H]2C)O1
MIC [3]: 4 to 8 µg/mL (≈ 4.8 to 9.59 µM) | MIC (Bacillus anthracis): 4 µg/mL (≈ 4.8 µM)

CC[C@@H](C(=O)[C@@H](C)[C@@H](O)[C@H](C)[C@@H]1O[C@@H]([C@@H](CC)C(=O)OC[C@H]2O[C@@H](n3cc(F)c(=O)[nH]c3=O)C[C@@H]2O)CC[C@@H]1C)[C@H]1O[C@]2(C=C[C@@H](O)[C@]3(CC[C@@](C)([C@H]4CC[C@](O)(CC)[C@H](C)O4)O3)O2)[C@H](C)C[C@@H]1C
MIC [3]: 8.17 to 32.7 µg/mL (≈ 8.34 to 33.4 µM) | MIC (Staphylococcus aureus [1]): 8.17 to 32.7 µg/mL (≈ 8.34 to 33.4 µM)

CC[C@@H](C(=O)[C@@H](C)[C@@H](O)[C@H](C)[C@@H]1O[C@@H]([C@@H](CC)C(=O)OCC(F)(F)F)CC[C@@H]1C)[C@H]1O[C@]2(C=C[C@@H](O)[C@]3(CC[C@@](C)([C@H]4CC[C@](O)(CC)[C@H](C)O4)O3)O2)[C@H](C)C[C@@H]1C
MIC [3]: 2 to 4 µg/mL (≈ 2.4 to 4.8 µM) | MIC (Staphylococcus aureus [1]): 0.5 to 1 µg/mL (≈ 0.6 to 1.2 µM) | GI50 (Trypanosoma brucei): 57 nM

CCCCC(=O)O[C@@H]1C=C[C@]2(O[C@H]([C@@H](CC)C(=O)[C@@H](C)[C@@H](O)[C@H](C)[C@@H]3O[C@@H]([C@@H](CC)C(=O)O)CC[C@@H]3C)[C@@H](C)C[C@H]2C)O[C@@]12CC[C@@](C)([C@H]1CC[C@](O)(CC)[C@H](C)O1)O2
MIC (Mycolicibacterium phlei [4]): 3.12 µg/mL (≈ 3.74 µM) | MIC (Bacillus subtilis): 1.56 µg/mL (≈ 1.87 µM) | MIC (Staphylococcus aureus [5]): 0.78 µg/mL (≈ 0.934 µM) | MIC (Micrococcus luteus): 1.56 µg/mL (≈ 1.87 µM)

CC[C@@H](C(=O)[C@@H](C)[C@@H](O)[C@H](C)[C@@H]1O[C@@H]([C@@H](CC)C(=O)O)CC[C@@H]1C)[C@H]1O[C@]2(C=C[C@@H](OC(C)=O)[C@]3(CC[C@@](C)([C@H]4CC[C@](O)(CC)[C@H](C)O4)O3)O2)[C@H](C)C[C@@H]1C
MIC (Mycolicibacterium phlei [4]): 6.25 µg/mL (≈ 7.88 µM) | MIC (Bacillus subtilis): 1.56 µg/mL (≈ 1.97 µM) | MIC (Staphylococcus aureus [5]): 0.78 µg/mL (≈ 0.984 µM) | MIC (Micrococcus luteus): 1.56 µg/mL (≈ 1.97 µM)

CCC(=O)O[C@@H]1C=C[C@]2(O[C@H]([C@@H](CC)C(=O)[C@@H](C)[C@@H](O)[C@H](C)[C@@H]3O[C@@H]([C@@H](CC)C(=O)O)CC[C@@H]3C)[C@@H](C)C[C@H]2C)O[C@@]12CC[C@@](C)([C@H]1CC[C@](O)(CC)[C@H](C)O1)O2
MIC (Mycolicibacterium phlei [4]): 1.56 µg/mL (≈ 1.93 µM) | MIC (Bacillus subtilis): 0.78 µg/mL (≈ 0.966 µM) | MIC (Staphylococcus aureus [5]): 0.78 µg/mL (≈ 0.966 µM) | MIC (Micrococcus luteus): 0.78 µg/mL (≈ 0.966 µM)

CCCC(=O)O[C@@H]1C=C[C@]2(O[C@H]([C@@H](CC)C(=O)[C@@H](C)[C@@H](O)[C@H](C)[C@@H]3O[C@@H]([C@@H](CC)C(=O)O)CC[C@@H]3C)[C@@H](C)C[C@H]2C)O[C@@]12CC[C@@](C)([C@H]1CC[C@](O)(CC)[C@H](C)O1)O2
MIC (Mycolicibacterium phlei [4]): 1.56 µg/mL (≈ 1.9 µM) | MIC (Bacillus subtilis): 0.78 µg/mL (≈ 0.95 µM) | MIC (Staphylococcus aureus [5]): 0.78 µg/mL (≈ 0.95 µM) | MIC (Micrococcus luteus): 0.78 µg/mL (≈ 0.95 µM)

CC[C@@H](C(=O)[C@@H](C)[C@@H](O)[C@H](C)[C@@H]1O[C@@H]([C@@H](CC)C(=O)O)CC[C@@H]1C)[C@H]1O[C@]2(C=C[C@@H](OC=O)[C@]3(CC[C@@](C)([C@H]4CC[C@](O)(CC)[C@H](C)O4)O3)O2)[C@H](C)C[C@@H]1C
MIC (Mycolicibacterium phlei [4]): 12.5 µg/mL (≈ 16 µM) | MIC (Bacillus subtilis): 3.12 µg/mL (≈ 4.01 µM) | MIC (Staphylococcus aureus [5]): 1.56 µg/mL (≈ 2 µM) | MIC (Micrococcus luteus): 3.12 µg/mL (≈ 4.01 µM)

CC[C@@H](C(=O)[C@@H](C)[C@@H](O)[C@H](C)[C@@H]1O[C@@H]([C@@H](CC)C(=O)OCc2cc([N+](=O)[O-])cc([N+](=O)[O-])c2)CC[C@@H]1C)[C@H]1O[C@]2(C=C[C@@H](O)[C@]3(CC[C@@](C)([C@H]4CC[C@](O)(CC)[C@H](C)O4)O3)O2)[C@H](C)C[C@@H]1C
MIC [3]: 4 to 8 µg/mL (≈ 4.3 to 8.59 µM) | MIC (Staphylococcus aureus [1]): 8 to 16 µg/mL (≈ 8.59 to 17.2 µM)

CC[C@@H](C(=O)[C@@H](C)[C@@H](O)[C@H](C)[C@@H]1O[C@@H]([C@@H](CC)C(=O)NCc2ccc(F)cc2)CC[C@@H]1C)[C@H]1O[C@]2(C=C[C@@H](O)[C@]3(CC[C@@](C)([C@H]4CC[C@](O)(CC)[C@H](C)O4)O3)O2)[C@H](C)C[C@@H]1C
MIC [3]: 16 to 128 µg/mL (≈ 18.6 to 149 µM) | MIC (Staphylococcus aureus [1]): 16 to 64 µg/mL (≈ 18.6 to 74.6 µM)

O=C(N[C@H](CO)[C@H](O)c1ccc([N+](=O)[O-])cc1)C(Cl)Cl [CHLORAMPHENICOL]
MIC (Staphylococcus aureus [6]): 3.12 µg/mL (≈ 9.66 µM)

CC[C@H]1OC(=O)[C@H](C)[C@@H](O[C@H]2C[C@@](C)(OC)[C@@H](O)[C@H](C)O2)[C@H](C)[C@@H](O[C@@H]2O[C@H](C)C[C@H](N(C)C)[C@H]2O)[C@](C)(O)C[C@@H](C)C(=O)[C@H](C)[C@@H](O)[C@]1(C)O [ERYTHROMYCIN]
MIC (Staphylococcus aureus [6]): 3.12 µg/mL (≈ 4.25 µM)

CC[C@@H](C(=O)[C@@H](C)[C@@H](O)[C@H](C)[C@@H]1O[C@@H]([C@@H](CC)C(=O)O)CC[C@@H]1C)[C@H]1O[C@]2(C=C[C@@H](O)[C@]3(CC[C@@](C)([C@H]4CC[C@](O)(CC)[C@H](C)O4)O3)O2)[C@H](C)C[C@@H]1C [SALINOMYCIN]
MIC [3]: 1 to 16 µg/mL (≈ 1.33 to 21.3 µM) | MIC (Alternaria kikuchiana [7]): 50 µg/mL (≈ 66.6 µM) | MIC (Mycolicibacterium phlei [4]): 12.5 µg/mL (≈ 16.6 µM) | EC50 [8]: 0.09 µg/mL (≈ 0.12 µM) | EC50 [9]: 0.4 µg/mL (≈ 0.533 µM) | MIC (Mycolicibacterium phlei [10]): 12.5 µg/mL (≈ 16.6 µM) | MIC (Alternaria kikuchiana [11]): 50 µg/mL (≈ 66.6 µM) | MIC (Bacillus subtilis): 3.12 µg/mL (≈ 4.15 µM) | MIC (Staphylococcus aureus [1]): 1 to 16 µg/mL (≈ 1.33 to 21.3 µM) | MIC (Staphylococcus aureus [5]): 1.56 µg/mL (≈ 2.08 µM) | MIC (Staphylococcus aureus [2]): 1 to 2 µg/mL (≈ 1.33 to 2.66 µM) | MIC (Pyricularia oryzae): 25 µg/mL (≈ 33.3 µM) | MIC (Micrococcus luteus): 3.12 µg/mL (≈ 4.15 µM) | MIC (Xanthomonas oryzae): 50 µg/mL (≈ 66.6 µM) | MIC (Bacillus anthracis): 1 µg/mL (≈ 1.33 µM) | GI50 (Trypanosoma brucei): 180 nM | MIC [12]: > 20 µg/mL | MIC (Mycobacterium avium): 12.5 µg/mL (≈ 16.6 µM) | pEC50 (Influenza A virus H3N2): 5.37 to 6.40

CN[C@@H]1[C@H](O[C@H]2[C@H](O[C@H]3[C@H](O)[C@@H](O)[C@H](N=C(N)N)[C@@H](O)[C@@H]3N=C(N)N)O[C@@H](C)[C@]2(O)C=O)O[C@@H](CO)[C@H](O)[C@H]1O [STREPTOMYCIN]
MIC (Staphylococcus aureus [6]): 3.12 µg/mL (≈ 5.36 µM)

CN(C)[C@@H]1C(O)=C(C(N)=O)C(=O)[C@@]2(O)C(O)=C3C(=O)c4c(O)cccc4[C@@](C)(O)[C@H]3C[C@@H]12 [TETRACYCLINE]
MIC (Staphylococcus aureus [6]): 3.12 µg/mL (≈ 7.02 µM)
